Measured values taken from article PMC9887116, “SDI-118, a novel procognitive SV2A modulator: First-in-human randomized controlled trial including PET/fMRI assessment of target engagement” (Frontiers in Pharmacology, 2023).

Legend:
[1] = plasma pharmacokinetics, Part A single ascending dose; type: in vivo, human (healthy male subjects)
Experimental: (§1) The study consisted of three parts. […] No stratification was performed.
Blood samples for PK analysis were taken at regular time-points up to approximately 96 h post-dose in Part A and C. During the study, a protocol amendment was approved to extend the PK sampling scheme to include samples up to approximately 144 h post-dose, starting from the fourth dosing period. The rationale for this amendment was a longer than anticipated terminal elimination half-life of SDI-118 as concluded from preliminary PK data of the first three dosing periods. Plasma concentrations of SDI-118 were assayed using a GLP validated UPLC/MS-MS method. This method is linear for a range of concentrations from 0.200 to 500 ng/ml, with a lower limit of quantification (LLOQ) of 0.200 ng/ml. The following PK parameters were estimated: maximum plasma concentration Cmax, time of maximum plasma concentration Tmax, area under the plasma concentration versus time curve AUC, AUC0-last (up to the last quantifiable concentration Clast), AUCinf (extrapolated to infinity), and apparent terminal elimination half-life t½. Dose proportionality of SDI-118 Cmax, AUC0-last, and AUCinf from Part A was calculated based on a mixed-effect power model. Food effect on SDI-118 Cmax, AUC0-last, and AUCinf from Part C was calculated using a 90% confidence interval (CI) on geometric mean ratios (fed/fasted) based on a mixed-effect analysis of variance (ANOVA) with median difference in Tmax with 90% CI. Major interaction was excluded if the 90% CI on AUC and Cmax ratios (fed/fasted) were within the 50%–200% boundaries. The food effect assessment in Part C was performed on a secondary population, i.e. the PK completers set, which excluded one subject who discontinued the study after one dosing period (cfr. infra).

[2] = system: SV2A; assay: minimum anticipated biological effect level in experimental rodent models; type: in vivo
Experimental: as §1

With `O=C1C[C@H](c2cc(F)c(F)c(F)c2)CN1Cn1ncnc1Cl` [SDI-118] the “geometric mean AUCinf” value ([1]; 0.3 mg single oral dose) was 120 ng·h/mL, the “geometric mean Cmax” value ([1]; 0.3 mg single oral dose) was 3.42 ng/mL and the “geometric mean AUCinf” value ([1]; 80 mg single oral dose) was 25,500 ng*h/mL. The “geometric mean Cmax” value ([1]; 80 mg single oral dose) was 854 ng/mL, the “deviation from dose proportionality for Cmax” value ([1]; 0.3-80 mg, mixed-effect power model) was “approximately 5%” and the “dose proportionality based on AUC0-last and AUCinf” value ([1]; entire dose range 0.3-80 mg) was “dose-proportional”. For the same compound, the “median Tmax” value ([1]; oral capsule, fasting condition) was 1.5 h and the “SV2A occupancy at which MABEL appeared to start” value [2] was “approximately 10%”.
